# In patent US20070128136A1, “Terrein compound having melanin biosynthesis inhibitors and its preparation” (priority 2003, published 2007):
# How the values were obtained:
# Format in all cases: cell-based
# Mel-Ab melanin cells [1] = assay: Melanin biosynthesis inhibiting effect in Mel-Ab melanin cells; details: for melanin biosynthesis inhibition: terrein 0-100 uM, kojic acid 0-100 uM, FIG. 5 and FIG. 6
# Procedure: Particularly, Mel-Ab melanin cells were cultured in DMEM medium supplemented with 10% fetal bovine serum (FBS), 100 nM phobol 12-myristate 13-acetate, 1 nM cholera toxin, 50 ug/ml of streptomycin and 50 U/ml of penicillin under the condition of 5% CO2, 37° C. Mel-Ab melanin cells cultured in the above experimental example 1 were treated respectively with terrein compound and kojic acid, a conventional whitening agent, at different concentrations (0, 10, 25, 50, 75 and 100 uM of terrein compound and 0, 1, 10 and 100 uM of kojic acid). Both Mel-Ab melanin cells cultured under general culture conditions and Mel-Ab melanin cells treated with terrein compound of the present invention were observed under a microscope for comparison, and the result was shown in FIG. 7.
# [2] = system: ERK (extracellular signal-regulated kinase); assay: ERK activation in Mel-Ab melanin cells by Western blot; details: 100 uM
# Procedure: (§1) In order to investigate melanin biosynthesis inhibiting mechanism of terrein compound of the present invention, Mel-Ab melanin cells cultured above were treated with 100 uM of terrein compound. And at each time point of 0, 2, 10, 30, 60, 180, and 360 minute, ERK (extracellular signal-regulated kinase) activation and MITF (microphthalmia-associated transcription factor) decomposition were investigated by Western blot.
# Mel-Ab melanin cells [3] = assay: Cytotoxicity test, crystal violet staining of Mel-Ab cells; details: 24 hours, under the concentration of 100 uM, FIG. 4
# Procedure: In order to investigate cytotoxicity of terrein compound of the present invention, Mel-Ab cells were treated with the terrein compound.
# Particularly, Mel-Ab melanin cells were cultured in DMEM medium supplemented with 10% fetal bovine serum (FBS), 100 nM phobol 12-myristate 13-acetate, 1 nM cholera toxin, 50 ug/ml of streptomycin and 50 U/ml of penicillin under the condition of 5% CO2, 37° C.
# Mel-Ab melanin cells cultured above were treated with terrein compound at different concentrations (0, 10, 25, 50, 75, 100 uM) for 24 hours, followed by further culture. Then, medium was removed. Cells were stained with 0.5 ml of 0.1% crystal violet and Mel-Ab melanin cells were checked. Crystal violet was removed by washing several times. Crystal violet remaining in cells was extracted by using 1.0 ml of 95% ethanol. OD590 of the extracted crystal violet was measured by ELISA reader in order to investigate vitality of cells.
# [4] = system: MITF (microphthalmia-associated transcription factor); assay: MITF decomposition in Mel-Ab melanin cells by Western blot; details: 100 uM, with ERK activation
# Procedure: as §1
compound,measurement,setting,value
"O=c1cc(CO)occ1O [kojic acid, reference compound]",melanin biosynthesis inhibition,Mel-Ab melanin cells [1],inhibited melanin biosynthesis dose-dependently
"C/C=C/C1=CC(=O)C(O)C1O (stereo not drawn) [terrein compound, 4,5-dihydroxy-3-propenyl-2-cyclopenten-1-one]",melanin biosynthesis inhibiting effect relative to kojic acid,Mel-Ab melanin cells [1]; both at 10 uM,10 times
same,dark melanin of cells observed under a microscope,"Mel-Ab melanin cells [1]; dose-dependently, FIG. 7",clearly decreased
same,melanin biosynthesis inhibition,Mel-Ab melanin cells [1],inhibited melanin biosynthesis dose-dependently
same,duration of ERK activation,[2],≥ 6 h
same,time from treatment to ERK1 and ERK2 activation,[2],2 to 10 min
same,ERK1 and ERK2 activation,[2]; FIG. 8,activated fast
same,"cytotoxicity (vitality of cells, OD590 of crystal violet)",Mel-Ab melanin cells [3],no cytotoxicity
same,expression of MITF,[4],decreased
